# Source: patent US4464385A, “Treatment of diabetic complications with hydantoins” (Alcon Laboratories, Inc., priority 1982, dated 1984)
# Columns and labels:
# [1] = system: cataracts in rats; assay: Prevention or retardation of cataracts in galactose-fed rats; format: in vivo, rat; conditions: for suppression of the formation of nuclear cataracts: 30 days; for % of Total Eyes, + (vacuole) / % of Total Eyes, - (Normal) / % of Total Eyes, N (nuclear cataract) / % of Total Eyes, S (snowflake) / Number of Eyes Observed, + (vacuole) / Number of Eyes Observed, - (Normal) / Number of Eyes Observed, N (nuclear cataract) / Number of Eyes Observed, S (snowflake) / Number of Eyes Observed, ±: 30% galactose diet, A,C,E 0.0025%, B,D 0.01%
# Procedure, shortened: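 Twelve rats per treatment, after two days on chow, were fed compound/diet mixtures ad libitum from Study Day 1 for thirty days; the 0.01% level was designed for 20 mg/kg/day. Cataracts were scored per eye using ophthalmoscope and/or penlight.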
# [2] = system: aldose reductase; assay: Aldose reductase inhibition / potency (general statement)
smiles,measurement,setting,value
"C[S+]([O-])c1ccc2c(c1)C1(CCO2)NC(=O)NC1=O (centres unmarked) [D, spiro-(6-methylsulfinylchroman-4,4'-imidazolidine)-2',5'-dione]",suppression of the formation of nuclear cataracts,[1]; 0.0025% in diet,greater than 80%
same,"time to vacuole formation, versus galactose control",[1]; 0.01% in diet,different (p<0.05) from control
same,suppression of the formation of nuclear cataracts,[1]; 0.01% in diet,greater than 80%
same,"% of Total Eyes, + (vacuole)",[1]; Study Day 2,0%
same,"% of Total Eyes, - (Normal)",[1]; Study Day 2,100.0%
same,"% of Total Eyes, N (nuclear cataract)",[1]; Study Day 2,0%
same,"% of Total Eyes, S (snowflake)",[1]; Study Day 2,0%
same,"Number of Eyes Observed, + (vacuole)",[1]; Study Day 2,0 eyes
same,"Number of Eyes Observed, - (Normal)",[1]; Study Day 2,24 eyes
same,"Number of Eyes Observed, N (nuclear cataract)",[1]; Study Day 2,0 eyes
same,"Number of Eyes Observed, S (snowflake)",[1]; Study Day 2,0 eyes
same,"Number of Eyes Observed, ±",[1]; Study Day 2,0 eyes
same,"% of Total Eyes, + (vacuole)",[1]; Study Day 3,0%
same,"% of Total Eyes, - (Normal)",[1]; Study Day 3,91.7%
same,"% of Total Eyes, N (nuclear cataract)",[1]; Study Day 3,0%
same,"% of Total Eyes, S (snowflake)",[1]; Study Day 3,0%
same,"Number of Eyes Observed, + (vacuole)",[1]; Study Day 3,0 eyes
same,"Number of Eyes Observed, - (Normal)",[1]; Study Day 3,22 eyes
same,"Number of Eyes Observed, N (nuclear cataract)",[1]; Study Day 3,0 eyes
same,"Number of Eyes Observed, S (snowflake)",[1]; Study Day 3,0 eyes
same,"Number of Eyes Observed, ±",[1]; Study Day 3,2 eyes
same,"% of Total Eyes, + (vacuole)",[1]; Study Day 4,16.7%
same,"% of Total Eyes, - (Normal)",[1]; Study Day 4,75.0%
same,"% of Total Eyes, N (nuclear cataract)",[1]; Study Day 4,0%
same,"% of Total Eyes, S (snowflake)",[1]; Study Day 4,0%
same,"Number of Eyes Observed, + (vacuole)",[1]; Study Day 4,4 eyes
same,"Number of Eyes Observed, - (Normal)",[1]; Study Day 4,18 eyes
same,"Number of Eyes Observed, N (nuclear cataract)",[1]; Study Day 4,0 eyes
same,"Number of Eyes Observed, S (snowflake)",[1]; Study Day 4,0 eyes
same,"Number of Eyes Observed, ±",[1]; Study Day 4,2 eyes
same,"% of Total Eyes, + (vacuole)",[1]; Study Day 5,33.3%
same,"% of Total Eyes, - (Normal)",[1]; Study Day 5,33.3%
same,"% of Total Eyes, N (nuclear cataract)",[1]; Study Day 5,0%
same,"% of Total Eyes, S (snowflake)",[1]; Study Day 5,0%
same,"Number of Eyes Observed, + (vacuole)",[1]; Study Day 5,8 eyes
same,"Number of Eyes Observed, - (Normal)",[1]; Study Day 5,8 eyes
same,"Number of Eyes Observed, N (nuclear cataract)",[1]; Study Day 5,0 eyes
same,"Number of Eyes Observed, S (snowflake)",[1]; Study Day 5,0 eyes
same,"Number of Eyes Observed, ±",[1]; Study Day 5,8 eyes
same,"% of Total Eyes, + (vacuole)",[1]; Study Day 6,41.6%
same,"% of Total Eyes, - (Normal)",[1]; Study Day 6,25.0%
same,"% of Total Eyes, N (nuclear cataract)",[1]; Study Day 6,0%
same,"% of Total Eyes, S (snowflake)",[1]; Study Day 6,0%
same,"Number of Eyes Observed, + (vacuole)",[1]; Study Day 6,10 eyes
same,"Number of Eyes Observed, - (Normal)",[1]; Study Day 6,6 eyes
same,"Number of Eyes Observed, N (nuclear cataract)",[1]; Study Day 6,0 eyes
same,"Number of Eyes Observed, S (snowflake)",[1]; Study Day 6,0 eyes
same,"Number of Eyes Observed, ±",[1]; Study Day 6,8 eyes
same,"% of Total Eyes, + (vacuole)",[1]; Study Day 8,50.0%
same,"% of Total Eyes, - (Normal)",[1]; Study Day 8,16.7%
same,"% of Total Eyes, N (nuclear cataract)",[1]; Study Day 8,0%
same,"% of Total Eyes, S (snowflake)",[1]; Study Day 8,8.3%
same,"Number of Eyes Observed, + (vacuole)",[1]; Study Day 8,12 eyes
same,"Number of Eyes Observed, - (Normal)",[1]; Study Day 8,4 eyes
same,"Number of Eyes Observed, N (nuclear cataract)",[1]; Study Day 8,0 eyes
same,"Number of Eyes Observed, S (snowflake)",[1]; Study Day 8,2 eyes
same,"Number of Eyes Observed, ±",[1]; Study Day 8,6 eyes
same,"% of Total Eyes, + (vacuole)",[1]; Study Day 10,58.4%
same,"% of Total Eyes, - (Normal)",[1]; Study Day 10,8.3%
same,"% of Total Eyes, N (nuclear cataract)",[1]; Study Day 10,0%
same,"% of Total Eyes, S (snowflake)",[1]; Study Day 10,16.7%
same,"Number of Eyes Observed, + (vacuole)",[1]; Study Day 10,14 eyes
same,"Number of Eyes Observed, - (Normal)",[1]; Study Day 10,2 eyes
same,"Number of Eyes Observed, N (nuclear cataract)",[1]; Study Day 10,0 eyes
same,"Number of Eyes Observed, S (snowflake)",[1]; Study Day 10,4 eyes
same,"Number of Eyes Observed, ±",[1]; Study Day 10,4 eyes
same,"% of Total Eyes, + (vacuole)",[1]; Study Day 12,62.5%
same,"% of Total Eyes, - (Normal)",[1]; Study Day 12,0%
same,"% of Total Eyes, N (nuclear cataract)",[1]; Study Day 12,0%
same,"% of Total Eyes, S (snowflake)",[1]; Study Day 12,20.8%
same,"Number of Eyes Observed, + (vacuole)",[1]; Study Day 12,15 eyes
same,"Number of Eyes Observed, - (Normal)",[1]; Study Day 12,0 eyes
same,"Number of Eyes Observed, N (nuclear cataract)",[1]; Study Day 12,0 eyes
same,"Number of Eyes Observed, S (snowflake)",[1]; Study Day 12,5 eyes
same,"Number of Eyes Observed, ±",[1]; Study Day 12,4 eyes
same,"% of Total Eyes, + (vacuole)",[1]; Study Day 14,62.5%
same,"% of Total Eyes, - (Normal)",[1]; Study Day 14,0%
same,"% of Total Eyes, N (nuclear cataract)",[1]; Study Day 14,0%
same,"% of Total Eyes, S (snowflake)",[1]; Study Day 14,29.2%
same,"Number of Eyes Observed, + (vacuole)",[1]; Study Day 14,15 eyes
same,"Number of Eyes Observed, - (Normal)",[1]; Study Day 14,0 eyes
same,"Number of Eyes Observed, N (nuclear cataract)",[1]; Study Day 14,0 eyes
same,"Number of Eyes Observed, S (snowflake)",[1]; Study Day 14,7 eyes
same,"Number of Eyes Observed, ±",[1]; Study Day 14,2 eyes
same,"% of Total Eyes, + (vacuole)",[1]; Study Day 16,45.8%
same,"% of Total Eyes, - (Normal)",[1]; Study Day 16,0%
same,"% of Total Eyes, N (nuclear cataract)",[1]; Study Day 16,0%
same,"% of Total Eyes, S (snowflake)",[1]; Study Day 16,37.5%
same,"Number of Eyes Observed, + (vacuole)",[1]; Study Day 16,13 eyes
same,"Number of Eyes Observed, - (Normal)",[1]; Study Day 16,0 eyes
same,"Number of Eyes Observed, N (nuclear cataract)",[1]; Study Day 16,0 eyes
same,"Number of Eyes Observed, S (snowflake)",[1]; Study Day 16,9 eyes
same,"Number of Eyes Observed, ±",[1]; Study Day 16,2 eyes
same,"% of Total Eyes, + (vacuole)",[1]; Study Day 18,54.2%
same,"% of Total Eyes, - (Normal)",[1]; Study Day 18,0%
same,"% of Total Eyes, N (nuclear cataract)",[1]; Study Day 18,0%
same,"% of Total Eyes, S (snowflake)",[1]; Study Day 18,37.5%
same,"Number of Eyes Observed, + (vacuole)",[1]; Study Day 18,13 eyes
same,"Number of Eyes Observed, - (Normal)",[1]; Study Day 18,0 eyes
same,"Number of Eyes Observed, N (nuclear cataract)",[1]; Study Day 18,0 eyes
same,"Number of Eyes Observed, S (snowflake)",[1]; Study Day 18,9 eyes
same,"Number of Eyes Observed, ±",[1]; Study Day 18,2 eyes
same,"% of Total Eyes, + (vacuole)",[1]; Study Day 20,29.2%
same,"% of Total Eyes, - (Normal)",[1]; Study Day 20,0%
same,"% of Total Eyes, N (nuclear cataract)",[1]; Study Day 20,4.2%
same,"% of Total Eyes, S (snowflake)",[1]; Study Day 20,58.4%
same,"Number of Eyes Observed, + (vacuole)",[1]; Study Day 20,7 eyes
same,"Number of Eyes Observed, - (Normal)",[1]; Study Day 20,0 eyes
same,"Number of Eyes Observed, N (nuclear cataract)",[1]; Study Day 20,1 eyes
same,"Number of Eyes Observed, S (snowflake)",[1]; Study Day 20,14 eyes
same,"Number of Eyes Observed, ±",[1]; Study Day 20,2 eyes
same,"% of Total Eyes, + (vacuole)",[1]; Study Day 22,20.8%
same,"% of Total Eyes, - (Normal)",[1]; Study Day 22,0%
same,"% of Total Eyes, N (nuclear cataract)",[1]; Study Day 22,8.3%
same,"% of Total Eyes, S (snowflake)",[1]; Study Day 22,70.8%
same,"Number of Eyes Observed, + (vacuole)",[1]; Study Day 22,5 eyes
same,"Number of Eyes Observed, - (Normal)",[1]; Study Day 22,0 eyes
same,"Number of Eyes Observed, N (nuclear cataract)",[1]; Study Day 22,2 eyes
same,"Number of Eyes Observed, S (snowflake)",[1]; Study Day 22,17 eyes
same,"Number of Eyes Observed, ±",[1]; Study Day 22,0 eyes
same,"% of Total Eyes, + (vacuole)",[1]; Study Day 24,20.8%
same,"% of Total Eyes, - (Normal)",[1]; Study Day 24,0%
same,"% of Total Eyes, N (nuclear cataract)",[1]; Study Day 24,8.3%
same,"% of Total Eyes, S (snowflake)",[1]; Study Day 24,70.8%
same,"Number of Eyes Observed, + (vacuole)",[1]; Study Day 24,5 eyes
same,"Number of Eyes Observed, - (Normal)",[1]; Study Day 24,0 eyes
same,"Number of Eyes Observed, N (nuclear cataract)",[1]; Study Day 24,2 eyes
same,"Number of Eyes Observed, S (snowflake)",[1]; Study Day 24,17 eyes
same,"Number of Eyes Observed, ±",[1]; Study Day 24,0 eyes
same,"% of Total Eyes, + (vacuole)",[1]; Study Day 26,16.7%
same,"% of Total Eyes, - (Normal)",[1]; Study Day 26,0%
same,"% of Total Eyes, N (nuclear cataract)",[1]; Study Day 26,8.3%
same,"% of Total Eyes, S (snowflake)",[1]; Study Day 26,75.0%
same,"Number of Eyes Observed, + (vacuole)",[1]; Study Day 26,4 eyes
same,"Number of Eyes Observed, - (Normal)",[1]; Study Day 26,0 eyes
same,"Number of Eyes Observed, N (nuclear cataract)",[1]; Study Day 26,2 eyes
same,"Number of Eyes Observed, S (snowflake)",[1]; Study Day 26,18 eyes
same,"Number of Eyes Observed, ±",[1]; Study Day 26,0 eyes
same,"% of Total Eyes, + (vacuole)",[1]; Study Day 28,16.7%
same,"% of Total Eyes, - (Normal)",[1]; Study Day 28,0%
same,"% of Total Eyes, N (nuclear cataract)",[1]; Study Day 28,16.7%
same,"% of Total Eyes, S (snowflake)",[1]; Study Day 28,66.7%
same,"Number of Eyes Observed, + (vacuole)",[1]; Study Day 28,4 eyes
same,"Number of Eyes Observed, - (Normal)",[1]; Study Day 28,0 eyes
same,"Number of Eyes Observed, N (nuclear cataract)",[1]; Study Day 28,4 eyes
same,"Number of Eyes Observed, S (snowflake)",[1]; Study Day 28,16 eyes
same,"Number of Eyes Observed, ±",[1]; Study Day 28,0 eyes
same,"% of Total Eyes, + (vacuole)",[1]; Study Day 30,4.2%
same,"% of Total Eyes, - (Normal)",[1]; Study Day 30,0%
same,"% of Total Eyes, N (nuclear cataract)",[1]; Study Day 30,16.7%
same,"% of Total Eyes, S (snowflake)",[1]; Study Day 30,79.2%
same,"Number of Eyes Observed, + (vacuole)",[1]; Study Day 30,1 eyes
same,"Number of Eyes Observed, - (Normal)",[1]; Study Day 30,0 eyes
same,"Number of Eyes Observed, N (nuclear cataract)",[1]; Study Day 30,4 eyes
same,"Number of Eyes Observed, S (snowflake)",[1]; Study Day 30,19 eyes
same,"Number of Eyes Observed, ±",[1]; Study Day 30,0 eyes
same,"time to vacuole formation, 0.0025% methylthio versus 0.01% sulfinyl","[1]; methylthio 0.0025%, sulfinyl 0.01% in diet",not different from each other
same,activity relative to the methylthio derivative,[2],lacked the activity of the methylthio derivative
